PubChem BioAssay (NCI)
Several values for one entry are separate records, joined by “and”; a condition that tells them apart may be missing. Identical values can stand only once.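 In this assay, cells in 96-well plates receive the compound at five concentrations for 48 hours. Endpoints are linearly interpolated between the surrounding concentrations. The concentration for 50% growth inhibition is given as GI50. At the TGI there is no net growth.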

Tests used:
Assay in all cases: DTP human tumour cell line panel, 48 h
[1] = test system: HOP-62 NSCLC
[2] = test system: PC-3 prostate
[3] = test system: KM12 colon
[4] = test system: SK-MEL-2 melanoma
[5] = test system: UACC-62 melanoma
[6] = test system: HT29 colon
[7] = test system: CCRF-CEM leukemia
[8] = test system: SNB-75 CNS
[9] = test system: A549 NSCLC
[10] = test system: SW-620 colon

| SMILES | GI50 [1] [µM] | TGI [1] [µM] | GI50 [2] [µM] | TGI [2] [µM] | GI50 [3] [µM] | TGI [3] [µM] | GI50 [4] [µM] | TGI [4] [µM] | GI50 [5] [µM] | TGI [5] [µM] | GI50 [6] [µM] | TGI [6] [µM] | GI50 [7] [µM] | TGI [7] [µM] | GI50 [8] | TGI [8] [µM] | GI50 [9] [µM] | TGI [9] [µM] | GI50 [10] [µM] | TGI [10] [µM] |
| --- | --- | --- | --- | --- | --- | --- | --- | --- | --- | --- | --- | --- | --- | --- | --- | --- | --- | --- | --- | --- |
| O=S(=O)(c1ccc(Cl)cc1)C(Cl)(Cl)Cl | 8.12 | > 49.5 | 4.73 | > 62.5 | 3.27 | 13.9 | 3.05 | 19.9 | 4.75 | 25 | 2.85 | 22.5 | 1.62 | > 32.6 | 2.34 µM | 20.3 | 3.46 | > 50 | 2.58 | 11.7 |
| O=C(O)CN1CCN(CC(=O)O)CC(=O)[O][Hg][O]C(=O)C1 | 25.1 | > 66.2 | 16.5 | 30.5 | > 100 | > 100 | 15.5 | 29.6 | 18.3 | 32.4 | 16 | 34.1 | 3.96 | 32 | 23.6 µM | 66.5 | > 100 | > 100 | 19.6 | 52.7 |
| CN=c1ccc2nc3ccc(N)cc3sc-2c1 | 6.8 | 27.3 | 0.276 | 8.85 | 2.07 | 20.1 | 11 | 30.9 | 2.61 | 14 | 8.44 | 34.3 | 0.584 | 17.9 | 10.8 µM | 28.7 | 0.714 | 13.3 | 2.89 | 20.2 |
| NC(=O)c1csc(C2OC(CO)C(O)C2O)n1 (stereo unspecified) | 44.7 | 3110 | 29.5 | 2560 | 70.8 | 6070 | – | 6440 | > 79.7 | 4960 | 45.9 | > 10000 | 15.6 | – | 26.5 µM and 40.8 µM | 7140 | 130 | > 10000 | 30.6 | 5900 |
| CN(C)CCCn1c(=O)c2ccccc2c2ccccc21 | 20.5 | > 100 | 18.2 | 54.2 | 15.5 | 66.7 | 16.5 | 33.5 | 17 | 33.6 | 5.74 | 33.4 | 22 | > 100 | 13.9 µM | 28.6 | 6.63 | 49.5 | 6.27 | 53.3 |
| O=c1[nH]c(=O)n(C2CC(O)C(COP(=O)(OCc3ccc([N+](=O)[O-])o3)N(CCCCCl)CC(O)CO)O2)cc1F (stereo unspecified) | 0.412 | > 26.2 | 0.154 | > 100 | 1.87 | > 100 | > 73.8 | > 100 | 0.138 | – | 1.66 | > 100 | 0.0102 | > 100 | 2.82 µM | > 100 | < 0.01 | > 100 | 0.0447 | > 100 |
| C[C@@H]1CN(Cc2ccc(F)cc2)[C@@H](C)CN1C(=O)c1cc2c(C(=O)C(=O)N(C)C)cn(C)c2cc1Cl | 18.7 | 48.9 | 18.9 | > 77.7 | 17.3 | 37.4 | 17 | 36.3 | 5.86 | 23.9 | 14 | 36.3 | 18.5 | 50.2 | 8.35 µM | 27.9 | 24 | > 92.4 | 24 | > 84.9 |
| O=C1OCC2=C1C(c1ccccc1)c1cc3c(cc1N2)OCO3 (stereo unspecified) | 0.0462 | 33.4 | 0.0404 | > 100 | < 0.0167 | – | 0.494 | 41.7 | 0.0328 | > 100 | 0.0351 | > 59 | 0.039 | > 100 | 0.0201 µM | 1.16 | 0.0375 | > 56.4 | 0.037 | > 100 |
